Reference: PubChem BioAssay (NCI)
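Step 1: Grow cells in 96-well plates. Step 2: Expose to compound for 48 hours at 5 concentrations. Step 3: Interpolate endpoints linearly; if unreached, use highest concentration. TGI denotes the concentration required for complete inhibition of growth.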

Assays:
Experiment in all cases: NCI tumour cell line growth inhibition, 48 h
[1] = test system: DMS 273 small cell lung
[2] = test system: KM20L2 colon
[3] = test system: LXFL 529 NSCLC
[4] = test system: SNB-78 CNS
[5] = test system: HOP-18 NSCLC
[6] = test system: RXF-631 renal
[7] = test system: P388 leukemia
[8] = test system: P388/ADR leukemia
[9] = test system: SN12K1 renal

Measured: TGI

CC1SC(c2ccccc2)N(Nc2c3ccccc3nc3ccccc23)C1=O (stereo unspecified)
> 100 µM: [1] | [2] | [3] | [4]

COc1cc2cc[n+](C)c(Cc3ccccc3)c2cc1OC
> 100 µM: [1] | [5] | [2] | [3] | [4]

O=C(N/C(=C\c1ccccc1[N+](=O)[O-])c1nc2ccccc2[nH]1)c1ccccc1
> 100 µM: [1] | [2] | [3] | [6] | [4]

CNC(C)Cc1ccccc1O (stereo unspecified)
> 100 µM: [1] | [5] | [2] | [3] | [4]

Nc1ccc2c(c1)C1=NNC(=O)CC1C2 (stereo unspecified)
not listed: [3] | [6]
> 100 µM: all other assays above
